Results as given in ChEMBL document CHEMBL5696442, “Discovery of type II inhibitors of TGFβ-activated kinase 1 (TAK1) and mitogen-activated protein kinase kinase kinase kinase 2 (MAP4K2)” (J Med Chem, 2015).

What was measured:
[1] = biological target: T1, Mitogen-activated protein kinase kinase kinase 5 (Homo sapiens) (UniProt Q99683); test: Inhibition of MAP3K5 Lys1 labeling site harbouring IAIKEIPER in human A-375 cells at 0.05 uM by KiNativ Profiling analysis relative to control; type: cell-based
T1 sequence (whole entry): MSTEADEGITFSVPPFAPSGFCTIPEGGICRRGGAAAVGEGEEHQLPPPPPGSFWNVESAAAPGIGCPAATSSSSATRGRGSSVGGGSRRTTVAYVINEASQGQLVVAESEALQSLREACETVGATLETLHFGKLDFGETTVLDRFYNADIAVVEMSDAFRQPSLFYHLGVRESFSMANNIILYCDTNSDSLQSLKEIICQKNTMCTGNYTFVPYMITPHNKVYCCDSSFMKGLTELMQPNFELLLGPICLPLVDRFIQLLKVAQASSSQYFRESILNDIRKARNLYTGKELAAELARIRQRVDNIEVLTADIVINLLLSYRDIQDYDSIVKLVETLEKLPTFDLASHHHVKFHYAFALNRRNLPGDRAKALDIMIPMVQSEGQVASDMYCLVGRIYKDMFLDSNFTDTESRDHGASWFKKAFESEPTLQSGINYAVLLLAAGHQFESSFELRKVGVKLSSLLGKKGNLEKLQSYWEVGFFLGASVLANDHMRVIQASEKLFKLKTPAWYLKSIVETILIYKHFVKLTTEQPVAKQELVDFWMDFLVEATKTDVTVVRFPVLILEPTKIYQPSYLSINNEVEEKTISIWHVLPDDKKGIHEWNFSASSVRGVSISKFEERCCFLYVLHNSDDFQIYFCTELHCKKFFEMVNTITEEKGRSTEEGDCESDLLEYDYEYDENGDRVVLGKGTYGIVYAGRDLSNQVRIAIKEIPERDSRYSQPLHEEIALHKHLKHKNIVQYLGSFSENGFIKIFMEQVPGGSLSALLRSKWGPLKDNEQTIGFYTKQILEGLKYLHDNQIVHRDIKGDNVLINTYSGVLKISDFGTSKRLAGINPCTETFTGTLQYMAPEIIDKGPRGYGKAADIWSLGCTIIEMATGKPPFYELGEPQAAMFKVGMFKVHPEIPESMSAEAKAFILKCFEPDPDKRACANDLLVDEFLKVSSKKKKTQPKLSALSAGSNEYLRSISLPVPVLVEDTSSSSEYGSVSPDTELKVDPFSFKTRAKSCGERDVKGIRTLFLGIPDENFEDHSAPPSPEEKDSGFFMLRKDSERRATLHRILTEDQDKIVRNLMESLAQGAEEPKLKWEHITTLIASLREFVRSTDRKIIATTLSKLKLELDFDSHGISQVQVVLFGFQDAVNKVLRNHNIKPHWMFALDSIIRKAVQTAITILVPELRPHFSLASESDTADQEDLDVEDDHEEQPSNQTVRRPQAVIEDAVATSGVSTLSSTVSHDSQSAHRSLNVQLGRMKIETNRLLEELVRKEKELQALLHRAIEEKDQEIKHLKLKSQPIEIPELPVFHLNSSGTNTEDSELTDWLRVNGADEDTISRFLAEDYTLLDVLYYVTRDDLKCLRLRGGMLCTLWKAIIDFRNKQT

[2] = biological target: T2, Inhibitor of nuclear factor kappa-B kinase subunit epsilon (Homo sapiens) (UniProt Q14164); test: Inhibition of IKKe Lys2 labeling site in human Huh-7 cells at 1 uM by KiNativ Profiling analysis relative to control; type: cell-based
T2 sequence (whole entry): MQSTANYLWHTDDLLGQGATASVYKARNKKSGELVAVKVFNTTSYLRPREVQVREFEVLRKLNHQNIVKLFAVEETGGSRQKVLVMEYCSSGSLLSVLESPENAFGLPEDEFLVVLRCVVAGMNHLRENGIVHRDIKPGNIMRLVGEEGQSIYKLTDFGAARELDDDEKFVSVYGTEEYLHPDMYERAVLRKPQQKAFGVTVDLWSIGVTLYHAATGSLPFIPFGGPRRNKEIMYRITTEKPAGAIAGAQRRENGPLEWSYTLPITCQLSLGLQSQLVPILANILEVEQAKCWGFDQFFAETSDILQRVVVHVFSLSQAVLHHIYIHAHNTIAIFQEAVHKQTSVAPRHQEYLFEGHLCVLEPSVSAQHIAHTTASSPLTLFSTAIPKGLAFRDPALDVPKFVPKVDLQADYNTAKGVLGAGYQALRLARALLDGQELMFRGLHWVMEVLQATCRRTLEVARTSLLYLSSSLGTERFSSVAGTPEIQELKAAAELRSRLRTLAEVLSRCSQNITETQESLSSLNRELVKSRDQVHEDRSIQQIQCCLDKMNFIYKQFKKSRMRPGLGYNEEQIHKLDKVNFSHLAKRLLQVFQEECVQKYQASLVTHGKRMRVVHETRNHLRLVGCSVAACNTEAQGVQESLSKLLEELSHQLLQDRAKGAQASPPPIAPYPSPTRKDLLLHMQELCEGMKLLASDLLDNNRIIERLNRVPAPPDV

| SMILES | inhibition [1] [%] | inhibition [2] [%] |
| --- | --- | --- |
| CCN1CCN(Cc2ccc(NC(=O)c3ccc(C)c(Oc4ccnc5[nH]ccc45)c3)cc2C(F)(F)F)CC1 | 10.8 |  |
| CNc1cc(Oc2cc(C(=O)Nc3cc(N4CCN(C)CC4)cc(C(F)(F)F)c3)ccc2C)ncn1 |  | 17.7 |
